Entries after “also recorded” stand apart in the source; their conditions may differ. Where two headings read alike, the source gives them in different places. Marks after values point to notes of the source that are not given here.
Columns and labels:
BnAb PG9 = type: binding, human
Protocol: V1V2 glycopeptide binding Kd and rate constant measurements were carried out on a BIAcore 3000 instrument using an anti-human Ig Fc capture assay as described earlier (Alam, S. M.; McAdams, M.; Boren, D.; Rak, M.; Scearce, R. M.; Gao, F.; Camacho, Z. T.; Gewirth, D.; Kelsoe, G.; Chen, P.; Haynes, B. F. J. Immunol. 2007, 178, 4424-4435.). Anti-human IgG Fc antibody (Sigma Chemicals) was immobilized on a CM5 sensor chip to about 10000 response units (RU), and each antibody was captured to about 300 RU. Anti-RSV Synagis mAb was captured on the same sensor chip as a control surface. Non-specific binding and drift in signal was double referenced by subtracting binding to the control surface and blank buffer flow for each of the peptide binding interactions. All curve-fitting analyses were performed using global fit of multiple titrations to the 1:1 Langmuir model. All data analysis was performed using the BIAevaluation 4.1 analysis software (GE Healthcare).

[1] = target: Man5GlcNAc2 V1V2 glycopeptide, DMSO-oxidized disulfide-linked dimer (HIV-1 strain AE.CM244 (A244)); experiment: SPR kinetics, mAb captured on anti-IgG, DMSO-oxidized dimer injected; 1:1 Langmuir
[2] = target: Man3GlcNAc2 V1V2 glycopeptide, DMSO-oxidized disulfide-linked dimer (HIV-1 strain AE.CM244 (A244)); experiment: as above
CH58 UCA = experiment: SPR binding to unmutated ancestor of CH58; parameters: species or system human; settings: Example 6; CH58 UCA; DMSO-oxidized dimer, 1-10 μg/mL
Protocol: (§1) Only the V1/V2 mAb CH58 bound to the glycan-deficient (aglycone) peptide (FIG. 9A). V1/V2 bNAbs ([…], CH01) bound weakly to V1/V2 GlcNAc2 peptide (FIG. 9B). In contrast, both bNAbs PG9 and CH01 bound avidly to the glycopeptides, V1/V2 Man3GlcNAc2 and V1/V2 Man5GlcNAc2 (FIGS. 9C and 9D). CH58 bound weakly to both glycopeptides. Each of the mAbs was captured on a human Fc specific IgG directly immobilized on a BIAcore CM5 sensor chip. Each of the V1/V2 peptides (3 min at 50 uL/min) was injected over the mAb captured surface and SPR binding was monitored on a BIAcore 3000 instrument. Non-specific binding of peptides was subtracted following measurement of signal on a surface with a control ant-RSV mab Synagis.
(§2) V1V2 glycopeptide binding Kd and rate constant measurements were carried out on BIAcore 3000 instruments as described earlier (Alam et al, Immunol. 178(7):4424-4435 (2007), Alam et al, J. Virol. 82(1):115-125 (2008)). Anti-human IgG Fc antibody (Sigma Chemicals) was immobilized on either a CM3 or CM5 (CM3 for kinetics and Kd determination) sensor chip (to minimize non-specific binding of peptides to chip matrix) to about 5000 Resonance Unit (RU) and each antibody was captured to about 100-200 RU on individual flow cells, in addition to one flow cell with the control Synagis mAb on the same sensor chip. Non-specific binding of V1V2 glycopeptide was double-referenced by substracting the control surface and blank buffer flow for each mAb-V1V2 glycopeptide binding interaction. […] SPR curve fitting analysis was performed using global fit of multiple titrations to the 1:1 Langmuir model. All data analysis was performed using the BIAevaluation 4.1 analysis software (GE Healthcare).

BnAb CH01 = experiment: SPR binding of V1V2 peptides/glycopeptides to captured mAb CH01; parameters: species or system human
V2 mAb CH58 = experiment: SPR binding of V1V2 peptides/glycopeptides to captured V2 mAb CH58; parameters: species or system human
CH01 UCA = experiment: SPR binding to unmutated ancestor of CH01; parameters: species or system human
Protocol: as §1
(§3) The binding Kd (disassociation constant) of the UAs ranges from about 0.15 to 0.2 μM.
as §2

PG9 UCA = experiment: SPR binding to unmutated ancestor of PG9; parameters: species or system human
Protocol: as §1, §3, §2

[3] = Circular dichroism analysis of V1V2 peptides; type: physicochemical; settings: dimerized in 20% DMSO-phosphate buffer about 20 h
Protocol: Circular dichroism (CD) spectra of V1/V2 peptides were measured on an Aviv model 202 spectropolarimeter using a 1 mm path length quartz cuvette. The 20% DMSO-treated peptides were dialyzed against 20 mM phosphate buffer, pH 7.0 to remove DMSO using a dialysis cassette of MW cut-off 3500 Da. The CD spectra of peptides (at 100 200 μg/ml concentration) in phosphate buffer (pH 7.4) were recorded at 25° C. Three scans of the CD spectra of each peptide were averaged and the CD signal from phosphate buffer was subtracted out.

[4] = Example 6, iodine-oxidized glycopeptide, 50 ug/mL
[5] = Example 6, spontaneously (air) oxidized, phosphate buffer, 50 ug/mL

## CC(=O)N[C@H]1[C@H](O[C@H]2[C@H](O)[C@@H](NC(C)=O)C(O)O[C@@H]2CO)O[C@H](CO)[C@@H](O[C@@H]2O[C@H](CO[C@H]3O[C@H](CO[C@H]4O[C@H](CO)[C@@H](O)[C@H](O)[C@@H]4O)[C@@H](O)[C@H](O[C@H]4O[C@H](CO)[C@@H](O)[C@H](O)[C@@H]4O)[C@@H]3O)[C@@H](O)[C@H](O[C@H]3O[C@H](CO)[C@@H](O)[C@H](O)[C@@H]3O)[C@@H]2O)[C@@H]1O (stereo partly drawn) [Man5GlcNAc2 glycan alone, reference compound]
BnAb PG9; Example 5, peptides 200 μg/mL, glycans 25 μg/mL over captured PG9
  SPR binding to PG9: not detected

## CH01 (antibody)
[1]
  Kd: 45.5 nM
  koff: 0.000302 s⁻¹
  kon: 6640 M⁻¹ s⁻¹
[2]
  Kd: 32.1 nM
  koff: 0.00032 s⁻¹
  kon: 9970 M⁻¹ s⁻¹

## Man3GlcNAc2 V1V2
CH58 UCA
  Kd: 600 nM
BnAb CH01; Example 1, peptide injected over captured mAb, listed as V1/V2 Man3GlcNAc2
  SPR binding to CH01: bound avidly; also recorded: bind selectively
BnAb CH01; [4]
  SPR binding to CH01: not to the BnAbs CH01 or PG9
BnAb CH01; [5]
  SPR binding to CH01: weak or no binding
BnAb CH01; Table 1, CH01, DMSO-oxidized dimer
  ka: 9.97 M^−1s^−1 (×10^3)
V2 mAb CH58; Example 1, antigen injected over captured mAb
  SPR binding to CH58: bound weakly
V2 mAb CH58; [4]
  SPR binding to CH58: bound
V2 mAb CH58; [5]
  SPR binding to CH58: show binding
BnAb PG9; Example 1, peptide injected over mAb captured on anti-human Fc, BIAcore 3000, listed as V1/V2 Man3GlcNAc2
  SPR binding to PG9: bound avidly; also recorded: bind selectively
BnAb PG9; Example 5, PG9, read-out: Kd (order of magnitude)
  Kd: ~100 nM
BnAb PG9; Example 5, glycopeptide 1-40 μg/mL over captured PG9, not deliberately oxidized, global fit 1:1 Langmuir, read-out: Kd
  Kd: 119 nM
BnAb PG9; Example 6, PG9, glycopeptide fully oxidized in 20% DMSO (dimer), listed as Man3, read-out: Kd
  Kd: 37 nM
BnAb PG9; Example 6, PG9, glycopeptide fully oxidized in 20% DMSO (dimer), listed as Man3 GlcNAc2, read-out: Kd
  Kd: 37.1 nM
BnAb PG9; [5]
  SPR binding to PG9: weak or no binding
BnAb PG9; Table 1, PG9, glycopeptide fully oxidized in 20% DMSO (dimer)
  ka: 3.97 M^−1s^−1 (×10^3)
CH01 UCA; Example 1
  SPR binding to CH01 UA: binds
CH01 UCA; Example 6
  SPR binding to CH01 UCA: bound
CH01 UCA; Example 6, CH01 UCA, DMSO-oxidized dimer
  Kd: 1800 nM
CH01 UCA; Example 6, CH01 UCA, DMSO-oxidized dimer, derived using faster component of dissociation phase
  Kd: 1780 nM
CH01 UCA; Table 1, CH01 UCA, DMSO-oxidized dimer
  ka: 2.06 M^−1s^−1 (×10^3)
PG9 UCA; Example 1
  SPR binding to PG9 UA: binds
PG9 UCA; Example 6
  SPR binding to PG9 UCA: bound
PG9 UCA; Example 6, PG9 UCA, DMSO-oxidized dimer
  Kd: 1100 nM
PG9 UCA; Example 6, PG9 UCA, DMSO-oxidized dimer, derived using faster component of dissociation phase
  Kd: 1060 nM
PG9 UCA; Table 1, PG9 UCA, DMSO-oxidized dimer
  ka: 5.33 M^−1s^−1 (×10^3)
[3]
  β-strand (CD spectra deconvolution, K2D3): 33%

Source: US20150283227A1, “SYNTHETIC ENV PROTEINS” (priority 2012, published 2015)
